Like-named read-outs stand apart in the source and are kept apart here.

One series has as its system MDR1. The experiment in a line: MDR1/MDCK permeability assay. Type of series: in vitro ADME. To be noted: dog; for Papp A→B at 120 min, 5 µM: MDCK-MDR1, pH 7.4, A to B; for Papp B→A at 120 min, 5 µM: MDCK-MDR1, pH 7.4, B to A; for efflux ratio at 120 min, 5 µM: MDCK-MDR1, pH 7.4, Papp B-A/A-B, Mean, P. Ratio(B-A/A-B) Efflux Ratio. The procedure, abridged: (§1)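 Confluent MDR1-MDCK monolayers (7–11 days old), compound dosed at 5 μM in HBSSg (≤1% DMSO) apically or basolaterally, pH 7.4 both sides, receiver with 1% BSA, N=2. Both sides sampled at 120 min and quantified by LC-MS/MS; Papp in each direction, efflux ratio B-A/A-B and recovery reported.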

Series [1] is described as follows: Human liver microsomal stability. Type of series: in vitro ADME. To be noted: for half-life at 1 µM: human, liver microsomes; for Microsome Stability (Human) (DMPK_BIIB); Mean; in vitro t1/2: human liver microsomes, Table 4. The procedure, abridged: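 Compound incubated at 1 µM with human liver microsomes for 60 min at 37 °C, in duplicate. Percent remaining derived from compound level at 60 min relative to 0 min. Controls: microsomes with NADPH and no compound; compound with microsomes lacking NADPH.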

Series [2] concerns the target T1, GSK3b (GST-full length GSK3b) (Homo sapiens, UniProt P49841).
T1 construct: GST-full length GSK3b: [SignalChem G08-9G]; purchased SignalChem G08-9G
The experiment in a line: GSK3b TR-FRET kinase inhibition assay. Type of series: biochemical. The essentials: (§2)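 GST-tagged full-length human kinase (1 nM), pre-incubated 30 min with compound, then reacted 100 min at ambient temperature at pH 7.5 with 200 nM biotinylated phospho-S645 glycogen synthase 631–650 peptide and ATP at 2 μM–1 mM. After EDTA quench, Tb-pSer641 antibody/streptavidin-d2 TR-FRET 665/615 ratio fitted for IC50.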

Series [3] deals with T2, GSK3a (GST-full length GSK3a) (Homo sapiens, UniProt P49840).
T2 construct: GST-full length GSK3a [SignalChem G08-10G]; purchased SignalChem G08-10G
The experiment in a line: GSK3a TR-FRET kinase inhibition assay. The format is biochemical. The essentials:
as §2

The subject of series [4] is MDR1-MDCK cell monolayers. The experiment in a line: MDR1/MDCK permeability assay. As to conditions: Table 4; for MDCK Permeability (MDR1-MDCK); Mean; Papp(A-B) (10^−6 cm/s): A to B; for MDCK Permeability (MDR1-MDCK); Mean; Papp(B-A) (10^−6 cm/s): B to A; for MDCK Permeability (MDR1-MDCK); Mean; P. Ratio(B-A/A-B) Efflux Ratio: Papp B-A/A-B. The format is in vitro ADME. The procedure, abridged:
as §1

Where [5] appears, read: 2 μM ATP, read-out: GSK3β TR-FRET 2 μM ATP GMean IC50.
Setting [6] is: 4 μM ATP, read-out: GSK3α TR-FRET 4 μM ATP GMean IC50.

T2 sequence (P49840 whole entry): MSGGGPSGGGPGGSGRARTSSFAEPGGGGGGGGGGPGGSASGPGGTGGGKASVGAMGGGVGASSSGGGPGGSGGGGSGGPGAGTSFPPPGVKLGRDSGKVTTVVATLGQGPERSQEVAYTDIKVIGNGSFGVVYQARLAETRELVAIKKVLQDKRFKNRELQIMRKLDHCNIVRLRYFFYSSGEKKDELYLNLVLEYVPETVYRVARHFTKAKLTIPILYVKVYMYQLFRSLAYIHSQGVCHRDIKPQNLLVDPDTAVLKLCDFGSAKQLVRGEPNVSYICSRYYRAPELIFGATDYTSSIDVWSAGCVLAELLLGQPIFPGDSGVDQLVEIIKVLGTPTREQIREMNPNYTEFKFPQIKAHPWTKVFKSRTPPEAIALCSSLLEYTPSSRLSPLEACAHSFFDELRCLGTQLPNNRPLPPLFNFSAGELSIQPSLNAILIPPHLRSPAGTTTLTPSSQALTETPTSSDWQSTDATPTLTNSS
T1 sequence (P49841 whole entry): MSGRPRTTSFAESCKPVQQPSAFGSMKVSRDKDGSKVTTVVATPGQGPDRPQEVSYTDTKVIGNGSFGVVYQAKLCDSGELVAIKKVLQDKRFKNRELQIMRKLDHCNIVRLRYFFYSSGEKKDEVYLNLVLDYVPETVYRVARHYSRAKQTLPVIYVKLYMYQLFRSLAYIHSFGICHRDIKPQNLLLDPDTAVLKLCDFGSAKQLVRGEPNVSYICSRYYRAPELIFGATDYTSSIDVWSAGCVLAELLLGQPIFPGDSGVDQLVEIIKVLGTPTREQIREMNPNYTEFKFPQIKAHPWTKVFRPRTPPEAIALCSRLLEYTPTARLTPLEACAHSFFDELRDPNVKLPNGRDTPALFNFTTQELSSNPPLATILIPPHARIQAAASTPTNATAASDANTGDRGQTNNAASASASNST

With `CCC1(c2ccccc2)C2=C(CC(C)(C)CC2=O)Nc2ncc(C(F)(F)F)cc21` (single isomer, unassigned) [Compound 133A], the values for the Papp A→B at 120 min, 5 µM in the series with MDR1 (Table 3) and in the series with MDR1 (Table 4) were 14 ×10⁻⁶ cm/s and 13 ×10⁻⁶ cm/s, respectively. In addition, the basolateral-to-apical permeability (Papp B→A) at 120 min, 5 µM with MDR1 (Table 3) was 8.2 ×10⁻⁶ cm/s; in the series on MDR1 (Table 4) it was 19 ×10⁻⁶ cm/s. Also, the efflux ratio at 120 min, 5 µM is 0.56 in the series on MDR1 (Table 3, read-out: MIDCK Permeability (MDR1-MDCK)) and 1.5 with MDR1 (Table 4, read-out: MDCK Permeability (MDR1-MDCK)). Further, the half-life at 1 µM was found to be 78 min in series [1] (Table 3, read-out: Microsome Stability (Human) (DMPK_BIIB), Mean, in vitro t1/2) and 1.4 min in series [1] (Table 4, read-out: Microsome Stability (Human) (DMPK_BIIB), Mean, in vitro t1/2). For the same molecule, the IC50 in series [2] (10 μM ATP, read-out: GSK3b 10 μM ATP Average IC50) is no more than 100 nM; in series [2] (100 μM ATP, read-out: GSK3b 100 μM ATP Average IC50), 100 to 1000 nM; in series [2] (1 mM ATP, Table 3, read-out: GSK3b TR-FRET 1 mM ATP Average IC50), 1000 to 5000 nM; in series [3] (10 μM ATP, read-out: GSK3a 10 μM ATP Average IC50), no more than 100 nM; in series [3] (100 μM ATP, read-out: GSK3a 100 μM ATP Average IC50), 100 to 1000 nM; in series [3] (1 mM ATP, Table 3, read-out: GSK3a TR-FRET 1 mM ATP Average IC50) it was 1000 to 5000 nM.
For `CCC1(c2cccc(-c3cn(C)nc3C)c2)C2=C(CC(C)(C)CC2=O)Nc2ncc(F)cc21` (single isomer, unassigned) [Compound 1032B], in series [4], the “MDCK Permeability (MDR1-MDCK); Mean; Papp(A-B) (10^−6 cm/s)” value was 2.3 10^−6 cm/s, the “MDCK Permeability (MDR1-MDCK); Mean; Papp(B-A) (10^−6 cm/s)” value was 26 10^−6 cm/s and the “MDCK Permeability (MDR1-MDCK); Mean; P. Ratio(B-A/A-B) Efflux Ratio” value is recorded as 11. Further, in series [1], the “Microsome Stability (Human) (DMPK_BIIB); Mean; in vitro t1/2” value (from here on “Microsome Stability (Human) (DMPK_BIIB)”) amounted to 6.4 min. Besides, the IC50 in series [2] (setting [5]) is no more than 100 nM. In addition, in series [3] (setting [6]), the IC50 was no more than 100 nM.
In the case of `CCC1(c2cccc(-c3ccnc4c3CCC4)c2)C2=C(CC(C)(C)CC2=O)Nc2ncccc21` (single isomer, unassigned) [Compound 1034B], in series [4], the “MDCK Permeability (MDR1-MDCK); Mean; Papp(A-B) (10^−6 cm/s)” value is recorded as 7.6 10^−6 cm/s, the “MDCK Permeability (MDR1-MDCK); Mean; Papp(B-A) (10^−6 cm/s)” value was 25 10^−6 cm/s and the “MDCK Permeability (MDR1-MDCK); Mean; P. Ratio(B-A/A-B) Efflux Ratio” value is listed as 3.3. In addition, in series [1], the “Microsome Stability (Human) (DMPK_BIIB)” value is recorded as 4.1 min. In addition, the 50% inhibitory concentration (IC50) in series [2] (setting [5]) was no more than 100 nM. Also, the IC50 in series [3] (setting [6]) is no more than 100 nM.
As for `CCC1(c2cccc(-c3ccncc3OC)c2)C2=C(CC(C)(C)CC2=O)Nc2ncc(F)cc21` (single isomer, unassigned) [Compound 1037B], in series [4], the “MDCK Permeability (MDR1-MDCK); Mean; Papp(A-B) (10^−6 cm/s)” value is on record as 2.7 10^−6 cm/s, the “MDCK Permeability (MDR1-MDCK); Mean; Papp(B-A) (10^−6 cm/s)” value was 26 10^−6 cm/s and the “MDCK Permeability (MDR1-MDCK); Mean; P. Ratio(B-A/A-B) Efflux Ratio” value amounted to 9.6. The “Microsome Stability (Human) (DMPK_BIIB)” value in series [1] was 5.6 min. Further, in series [2] (setting [5]), the IC50 is no more than 100 nM. Also, the IC50 in series [3] (setting [6]) was no more than 100 nM.
As to `CCC1(c2cccc(-c3cncn3C(C)C)c2)C2=C(CC(C)(C)CC2=O)Nc2ncc(F)cc21` (single isomer, unassigned) [Compound 1038A], in series [4], the “MDCK Permeability (MDR1-MDCK); Mean; Papp(A-B) (10^−6 cm/s)” value is recorded as 0.90 10^−6 cm/s, the “MDCK Permeability (MDR1-MDCK); Mean; Papp(B-A) (10^−6 cm/s)” value was 41 10^−6 cm/s and the “MDCK Permeability (MDR1-MDCK); Mean; P. Ratio(B-A/A-B) Efflux Ratio” value is 43. Moreover, the “Microsome Stability (Human) (DMPK_BIIB)” value in series [1] worked out at 16 min. For the same molecule, the IC50 in series [2] (setting [5]) is no more than 100 nM. In addition, the IC50 in series [3] (setting [6]) is no more than 100 nM.
Consider `CCC1(c2cccc(-c3cncn3C(C)C)c2)C2=C(CC(C)(C)CC2=O)Nc2ncc(F)cc21` (single isomer, unassigned) [Compound 1038B], for which, in series [4], the “MDCK Permeability (MDR1-MDCK); Mean; Papp(A-B) (10^−6 cm/s)” value is reported as 0.70 10^−6 cm/s, the “MDCK Permeability (MDR1-MDCK); Mean; Papp(B-A) (10^−6 cm/s)” value was 34 10^−6 cm/s and the “MDCK Permeability (MDR1-MDCK); Mean; P. Ratio(B-A/A-B) Efflux Ratio” value stood at 49. Also, the “Microsome Stability (Human) (DMPK_BIIB)” value in series [1] came to 13 min. For the same molecule, in series [2] (setting [5]), the IC50 lay in the range of 100 to 1000 nM. Moreover, the IC50 in series [3] (setting [6]) is no more than 100 nM.
As to `CCC1(c2cccc(-c3ccnc4c3CCCC4)c2)C2=C(CC(C)(C)CC2=O)Nc2ncccc21` (single isomer, unassigned) [Compound 1039B], the “MDCK Permeability (MDR1-MDCK); Mean; Papp(A-B) (10^−6 cm/s)” value in series [4] is recorded as 6.6 10^−6 cm/s. Besides, in series [4], the “MDCK Permeability (MDR1-MDCK); Mean; Papp(B-A) (10^−6 cm/s)” value was 22 10^−6 cm/s. The “MDCK Permeability (MDR1-MDCK); Mean; P. Ratio(B-A/A-B) Efflux Ratio” value in series [4] is on record as 3.3. Also, the “Microsome Stability (Human) (DMPK_BIIB)” value in series [1] was 4.6 min. Also, the IC50 in series [2] (setting [5]) is no more than 100 nM; in series [2] (1 mM ATP, Table 4, read-out: GSK3β TR-FRET 1 mM ATP GMean IC50), 1000 to 5000 nM; in series [3] (setting [6]) it was no more than 100 nM; in series [3] (1 mM ATP, Table 4, read-out: GSK3α TR-FRET 1 mM ATP GMean IC50), 100 to 1000 nM.

The values above are taken from patent US20260103465A1, “GLYCOGEN SYNTHASE KINASE 3 INHIBITORS AND USES THEREOF” (The Broad Institute, Inc., priority 2023, published 2026).
